This data set is described as follows: Accelerated heat-treatment test for browning (Experiment 4). It is filed as physicochemical. Particulars: 150 mg heated at 80° C. for three days, dissolved in 3 ml water, absorbance at 400 nm. From the text: Accordingly, in this experiment, Test samples 1 and 12 to 16, which had been used in the antecedent Experiments, were examined for the relationship between the coloration and the total content of L-ascorbic acid plus D-glucose, the content of L-ascorbic acid, or the reducing power of the whole particulate composition by conducting an accelerated test on heat treatment according to the following procedures:
One hundred and fifty milligrams of each of the test samples was weighed and placed in a 10-ml test tube with a screw cap, and the test tubes in a closed condition of their opening parts with the screw caps were placed in “DRYING-OVEN SA310”, a product name of an oven commercialized by Masuda Corp., Osaka, Japan, and heated at 80° C. for three days. […] The resulting solutions were measured for absorbance at a wavelength of 400 nm using “UV-2400PC”, a product name of a spectrophotometer commercialized by Shimadzu Corp., Kyoto, Japan. The degree of coloration caused by heating was judged based on the following two criteria: When the absorbance at a wavelength of 400 nm is less than 0.50, it is judged as “Not browned or substantially not browned” (−); and when the absorbance at a wavelength of 400 nm is 0.50 or higher, it is judged as “Browned” (+).

The source of these data is US9265781B2, “Process for producing a particulate composition comprising anhydrous crystalline 2-O-alpha-D-glucosyl-L-ascorbic acid” (HAYASHIBARA CO., LTD., priority 2009, dated 2016).

Consider `O=C1O[C@H]([C@@H](O)CO)C(O)=C1O[C@H]1O[C@H](CO)[C@@H](O)[C@H](O)[C@H]1O` [Test sample 16, 2-O-α-D-glucosyl-L-ascorbic acid], for which the Browning property entry is “+ (when the absorbance at a wavelength of 400 nm is 0.50 or higher, it is judged as “Browned” (+))”.
